Results as given in ChEMBL document CHEMBL1122521, “Nucleic acid related compounds. 47. Synthesis and biological activities of pyrimidine and purine "acyclic" nucleoside analogues” (J Med Chem, 1984).
In brackets after ≈: the same amount, converted by molar mass.

Assays:
Format in all cases: functional
[1] = system: Human alphaherpesvirus 2; test: Concentration required to reduce cytopathogenicity of Herpes simplex virus type 2 (strain G) by 50% in primary rabbit kidney (PRK) cells
[2] = system: Human alphaherpesvirus 1; test: Concentration required to reduce cytopathogenicity of Herpes simplex virus type 1 (strain KOS) by 50% in primary rabbit kidney (PRK) cells
[3] = system: L1210; test: Inhibitory concentration required to reduce [3H-methyl]-dThd C incorporation into cellular DNA by 50% in Murine Leukemia L1210 cells; settings: Mus musculus, read-out: ID50 (the source's name)
[4] = system: L1210; test: Inhibitory concentration required to reduce [3H1',2']dUrd incorporation into cellular DNA by 50% in Murine Leukemia L1210 cells; settings: Mus musculus, read-out: ID50 (the source's name)
[5] = system: L1210; test: Inhibitory concentration required to reduce cell growth of Murine Leukemia L1210 cells; settings: Mus musculus, read-out: ID50 (the source's name)
[6] = Inhibitory concentration required to reduce 2-deoxyuridine ([3H-1'2']dUrd) incorporation into DNA of Primary Rabbit kidney (PRK) cell cultures; settings: Oryctolagus cuniculus, read-out: ID50 (the source's name)
[7] = Inhibitory concentration required to reduce incorporation of 2-deoxythymidine (dThd) into DNA of Primary Rabbit kidney (PRK) cell cultures; settings: Oryctolagus cuniculus, read-out: ID50 (the source's name)
[8] = system: Vesicular stomatitis virus; test: Concentration required to reduce cytopathogenicity of Vesicular stomatitis virus by 50% in primary rabbit kidney (PRK) cells
[9] = Ratio of ID50 for dThd or dUrd incorporation to ID50 for HSV-1, HSV-2 or VV(whatever was lowest)
[10] = system: L1210; test: Inhibitory concentration required to reduce [3H1',2']dUrd incorporation into cellular DNA by 50 %; settings: Mus musculus, read-out: ID50 (the source's name)
[11] = Inhibitory concentration required to reduce incorporation of 2-deoxyuridine (dUrd) into DNA of Primary Rabbit kidney (PRK) cell cultures; settings: Oryctolagus cuniculus, read-out: ID50 (the source's name)
[12] = system: L1210; test: Inhibitory concentration required to reduce [14C-2]-dUrd incorporation into cellular DNA by 50% in Murine Leukemia L1210 cells; settings: Mus musculus, read-out: ID50 (the source's name)

Row | Compound | ID50 [1] | ID50 [2] | IC50 [3] | IC50 [4] | IC50 [5] | IC50 [6] | IC50 [7] | ID50 [8] | Antiviral index [9] | IC50 [10] | IC50 [11] | IC50 [12]
1 | Nc1nc2c(ncn2COCCO)c(=O)[nH]1 [ACYCLOVIR] | 0.04 µg/mL (≈ 0.178 µM) | 0.05 µg/mL (≈ 0.222 µM) | 367 µg/mL (≈ 1630 µM) | 50 µg/mL (≈ 222 µM) | 13 µg/mL (≈ 57.7 µM) | 13 µg/mL (≈ 57.7 µM) | 12 µg/mL (≈ 53.3 µM) | >400 µg/mL | 300 |  |  | 
2 | Nc1nc2c(nc(N)n2COCCO)c(=O)[nH]1 | 0.3 µg/mL (≈ 1.25 µM) | 0.7 µg/mL (≈ 2.91 µM) | 500 µg/mL (≈ 2080 µM) |  | > 500 µg/mL |  | 290 µg/mL (≈ 1210 µM) | >100 µg/mL | 667 | 500 µg/mL (≈ 2080 µM) | 200 µg/mL (≈ 833 µM) | 
3 | O=c1[nH]c(=O)n(COCCO)cc1[N+](=O)[O-] | >400 µg/mL | >400 µg/mL | > 1000 µg/mL | > 1000 µg/mL | 447 µg/mL (≈ 1930 µM) |  | > 400 µg/mL |  |  |  | > 400 µg/mL | 
4 | Nc1ccn(COCCO)c(=O)n1 | 100 µg/mL (≈ 540 µM) | 70 µg/mL (≈ 378 µM) | > 1000 µg/mL | > 1000 µg/mL | 675 µg/mL (≈ 3650 µM) |  | > 400 µg/mL | >400 µg/mL | > 5 |  | > 400 µg/mL | 
5 | Nc1nc(Cl)c2ncn(COCCO)c2n1 | 20 µg/mL (≈ 82.1 µM) | 2 µg/mL (≈ 8.21 µM) | > 1000 µg/mL | > 1000 µg/mL | 69 µg/mL (≈ 283 µM) | > 100 µg/mL | 50 µg/mL (≈ 205 µM) | >400 µg/mL | 25 |  |  | 
6 | CNc1nc2c(=O)[nH]c(N)nc2n1COCCO | 3 µg/mL (≈ 11.8 µM) | 7 µg/mL (≈ 27.5 µM) | > 500 µg/mL |  | > 500 µg/mL |  | > 400 µg/mL | >400 µg/mL | 133 | > 500 µg/mL | > 400 µg/mL | 
7 | CC(=O)OCCOCn1cnc2c(Cl)ncnc21 | 70 µg/mL (≈ 259 µM) | 70 µg/mL (≈ 259 µM) | 475 µg/mL (≈ 1750 µM) | 233 µg/mL (≈ 861 µM) | 44 µg/mL (≈ 163 µM) |  | 60 µg/mL (≈ 222 µM) | >400 µg/mL | 3 |  | 62 µg/mL (≈ 229 µM) | 
8 | CN(C)c1nc2c(=O)[nH]c(N)nc2n1COCCO | 250 µg/mL (≈ 932 µM) | 30 µg/mL (≈ 112 µM) | > 500 µg/mL |  | > 500 µg/mL |  | > 400 µg/mL | >400 µg/mL | 13 | > 500 µg/mL | > 400 µg/mL | 
9 | OCCOCn1cnc2c(O)ncnc21 | >400 µg/mL | >400 µg/mL | > 1000 µg/mL | > 1000 µg/mL | > 1000 µg/mL | > 100 µg/mL | > 100 µg/mL |  |  |  |  | 
10 | O=c1[nH]c(=O)n(COCCO)cc1I | >400 µg/mL | >400 µg/mL | > 1000 µg/mL | > 1000 µg/mL | > 1000 µg/mL |  | > 400 µg/mL |  |  |  | > 400 µg/mL | 
11 | O=c1[nH]c(=O)n([C@H]2C[C@H](O)[C@@H](CO)O2)cc1/C=C/Br [BRIVUDINE] | 2 µg/mL (≈ 6 µM) | 0.007 µg/mL (≈ 0.021 µM) |  |  |  |  | 73 µg/mL (≈ 219 µM) | >400 µg/mL | 3860 |  | 27 µg/mL (≈ 81 µM) | 
12 | O=c1[nH]c(=O)n(COCCO)cc1Cl | >400 µg/mL | >400 µg/mL | > 1000 µg/mL | > 1000 µg/mL | > 1000 µg/mL |  | > 400 µg/mL |  |  |  | > 400 µg/mL | 
13 | Nc1ncnc2c1ncn2COCCO | 10 µg/mL (≈ 47.8 µM) | 10 µg/mL (≈ 47.8 µM) | > 1000 µg/mL | > 1000 µg/mL | 19 µg/mL (≈ 90.8 µM) |  | 49 µg/mL (≈ 234 µM) | >400 µg/mL | 2.2 |  | 22 µg/mL (≈ 105 µM) | 
14 | O=c1cc(O)ccn1COCCO | >400 µg/mL | >400 µg/mL | > 1000 µg/mL | > 1000 µg/mL | > 1000 µg/mL |  | > 400 µg/mL |  |  |  | > 400 µg/mL | 
15 | Cc1nc2c(O)nc(N)nc2n1COCCO | 0.5 µg/mL (≈ 2.09 µM) | 0.5 µg/mL (≈ 2.09 µM) | > 500 µg/mL | > 500 µg/mL | 323 µg/mL (≈ 1350 µM) |  | > 400 µg/mL | >400 µg/mL | > 800 |  | > 400 µg/mL | 
16 | O=c1[nH]c(=O)n([C@H]2C[C@H](O)[C@@H](CO)O2)cc1F [FLOXURIDINE] |  |  | 80 µg/mL (≈ 325 µM) |  | 0.001 µg/mL (≈ 0.00406 µM) |  |  |  |  |  |  | 3 ng/mL (≈ 0.0122 µM)
